According to ChEMBL document CHEMBL1201862, “PubChem BioAssay data set” (2004):
Activity calls are given as the source filed them. Rule as the data show it, for most assays here: actives have a measured EC50 and inactives only a lower limit.

Experiments:
[1] = Luminescence Cell-Based Dose Confirmation HTS to Identify Activators of 5'UTR Stem-Loop Driven Alpha-Synuclein mRNA Translation in H4 Neuroglioblastoma Cells. [Related pubchem assays: 1829 (Project Summary), 1814 (Primary HTS)]; format: functional
H4 = experiment: Luminescence Cell-Based Dose Response HTS to Identify Activators of 5'UTR Stem-Loop Driven Prion Protein mRNA Translation in H4 Neuroglioblastoma Cells. [Related pubchem assays: 1829 (Project Summary), 1814 (Primary HTS)]; format: functional; conditions: Homo sapiens
[2] = Luminescence Cell-Based Dose Response HTS to Identify Activators of Luciferase Translation or Activity in H4 […] Cells. [Related pubchem assays: 1829 (Project Summary), 1814 (Primary HTS)]; format: functional
Cytochrome P450 2C9 = Cytochrome P450 2C9 (Homo sapiens, UniProt P11712)
Streptococcus = experiment: GAS UMAA2166 growth inhibition – luminescence, BacTiterGlo, counter-screen for streptokinase expression inhibitor project, dose response (AID 1915); format: functional, organism-based;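 also: potency for reduction of bacterial viability or growth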
Streptokinase A = biological target: T1, Streptokinase A (Streptococcus pyogenes serotype M1, UniProt P10520); experiment: viability-normalized secreted streptokinase activity reduction – plasminogen activation absorbance, OD405, dose response (AID 1914); format: functional, Streptococcus pyogenes M1 GAS;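 also: secreted streptokinase activity via plasminogen activation per viability signal from cell pellet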
T1 sequence (P10520 whole entry): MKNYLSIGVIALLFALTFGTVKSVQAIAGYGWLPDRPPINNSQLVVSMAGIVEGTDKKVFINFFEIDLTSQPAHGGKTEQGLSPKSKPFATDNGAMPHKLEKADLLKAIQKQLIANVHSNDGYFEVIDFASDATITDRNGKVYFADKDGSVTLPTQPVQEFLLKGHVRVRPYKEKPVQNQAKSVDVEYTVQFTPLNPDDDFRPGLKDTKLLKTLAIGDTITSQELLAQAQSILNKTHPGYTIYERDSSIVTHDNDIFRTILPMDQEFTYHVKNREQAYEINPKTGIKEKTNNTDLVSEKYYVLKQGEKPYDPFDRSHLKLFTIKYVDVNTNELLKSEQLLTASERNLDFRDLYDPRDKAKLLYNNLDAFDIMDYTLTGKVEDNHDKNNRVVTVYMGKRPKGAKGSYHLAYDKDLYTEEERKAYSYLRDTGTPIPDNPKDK

[3] = test system: Streptococcus sp. 'group A'; experiment: Streptococcus pyogenes SK(-)GAS viability under kanamycin – luminescence, BacTiterGlo, confirmation, counter-screen for streptokinase expression inhibitor project, dose response (AID 1900); format: functional, organism-based
[4] = NIH3T3 cell viability loss – ATP luminescence, mouse fibroblasts, counter-screen, dose response (AID 2010); format: functional, cell-based;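 also: cells exposed to compound for about 90 hours before reading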
[5] = Trypanosoma cruzi growth suppression in host cells – NIH3T3 host cells, beta-gal luminescence, confirmation (AID 2044); format: functional, cell-based;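 also: intracellular parasites grown in NIH/3T3 mouse fibroblasts as host cells; luminescent beta-galactosidase reporter signal from transgenic T. cruzi replicating inside host cells; inhibitors lower the luminescence signal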
[6] = biological target: T2, Corticotropin-releasing factor receptor 2/Corticotropin-releasing factor-binding protein (Homo sapiens, UniProt P24387+Q13324); experiment: activators of CRF receptor 2 with binding protein – uHTS hits, confirmation (AID 602473); format: functional; conditions: read-out: EC50_Mean
T2 sequence (Q13324 whole entry): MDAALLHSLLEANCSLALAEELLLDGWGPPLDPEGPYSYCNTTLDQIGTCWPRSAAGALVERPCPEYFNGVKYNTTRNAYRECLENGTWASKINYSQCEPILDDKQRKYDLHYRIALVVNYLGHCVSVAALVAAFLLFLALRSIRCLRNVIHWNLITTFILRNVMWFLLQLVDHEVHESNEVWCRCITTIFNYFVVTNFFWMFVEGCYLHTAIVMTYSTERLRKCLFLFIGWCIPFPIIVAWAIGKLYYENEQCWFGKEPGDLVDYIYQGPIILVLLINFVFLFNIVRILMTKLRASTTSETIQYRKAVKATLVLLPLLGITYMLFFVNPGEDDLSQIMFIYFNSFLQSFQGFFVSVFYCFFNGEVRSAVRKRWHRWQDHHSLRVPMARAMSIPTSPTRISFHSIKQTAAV
T2 sequence (P24387 whole entry): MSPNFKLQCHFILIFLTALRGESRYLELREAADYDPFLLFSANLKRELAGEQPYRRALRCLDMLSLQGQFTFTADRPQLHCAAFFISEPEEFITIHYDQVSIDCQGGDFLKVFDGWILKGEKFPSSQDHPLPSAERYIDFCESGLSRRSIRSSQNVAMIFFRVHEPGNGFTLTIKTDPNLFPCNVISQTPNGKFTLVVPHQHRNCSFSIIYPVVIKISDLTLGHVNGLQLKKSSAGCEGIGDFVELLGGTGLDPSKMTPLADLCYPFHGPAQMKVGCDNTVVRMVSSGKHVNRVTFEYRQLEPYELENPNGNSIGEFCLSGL

Cytochrome P450 2C9, sequence (P11712 whole entry): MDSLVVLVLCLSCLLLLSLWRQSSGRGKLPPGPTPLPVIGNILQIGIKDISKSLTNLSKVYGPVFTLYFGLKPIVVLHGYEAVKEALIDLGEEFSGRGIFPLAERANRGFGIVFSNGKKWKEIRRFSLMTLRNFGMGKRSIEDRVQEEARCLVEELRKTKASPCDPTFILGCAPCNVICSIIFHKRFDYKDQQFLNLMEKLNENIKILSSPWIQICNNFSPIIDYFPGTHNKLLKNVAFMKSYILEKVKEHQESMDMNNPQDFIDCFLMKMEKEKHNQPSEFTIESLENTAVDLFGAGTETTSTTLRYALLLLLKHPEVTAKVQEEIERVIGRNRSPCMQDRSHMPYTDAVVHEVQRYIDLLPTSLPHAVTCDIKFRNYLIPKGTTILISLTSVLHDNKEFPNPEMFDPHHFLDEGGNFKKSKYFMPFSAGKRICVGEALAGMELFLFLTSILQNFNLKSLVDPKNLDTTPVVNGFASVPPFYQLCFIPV

Structure (SMILES)	EC50 [1]	EC50 (H4)	EC50 [2]	EC50 [4]	EC50 [5]	further results
CC1(C)OC2OC(COC(=O)c3ccccc3)C3OC(C)(C)OC3C2O1 (centres undefined)	15.5 µM (active)	17.3 µM (active)	10.1 µM (active)			
Cc1cc(Oc2ccccc2)nc(NCc2ccccc2)n1						AC50 (Cytochrome P450 2C9): 10 µM (inconclusive)
Cc1ccccc1CN1CCCN(Cc2ccc(Cl)cc2)S1(=O)=O						EC50 (Streptococcus): > 150 µM (not active); EC50 (Streptokinase A): 23.3 µM (active); EC50 [3]: 10.1 µM (active)
CN(C(=O)c1cccc(N2C(=O)C3C4C=CC(C4)C3C2=O)c1)C1CCCCC1 (centres undefined)	> 120 µM (not active)	> 120 µM (not active)	> 120 µM (not active)			
CC1=CC(C)(C)N2C(=O)C3(C(C#N)=C(N)Oc4cc(C)oc(=O)c43)c3cc(C)cc1c32 (centres undefined)				> 60 µM (not active)	0.253 µM (active)	
O=[N+]([O-])c1cccc(-c2nnn(C34CC5CC(CC(C5)C3)C4)n2)c1	> 120 µM (not active)	15 µM (active)	7.38 µM (active)			
CSCCC(=O)Nc1cc(S(=O)(=O)N2CCOCC2)ccc1N1CCN(C)CC1				> 60 µM (not active)	1.94 µM (active)	
Cc1cc(C)c2c(CN3CCC(C)CC3)cc(=O)oc2c1	0.419 µM (active)	26.3 µM (active)	> 120 µM (not active)			
N=C(NOC(=O)C1CCCCC1)c1ccc(Br)cc1	27.6 µM (active)	1.23 µM (active)	28.7 µM (active)			
CCOC(=O)c1sc(N(Cc2ccccc2)C(=O)CN2C(=O)CN(C)C2=O)nc1C						AC50 (Cytochrome P450 2C9): 11.2 µM (inconclusive)
Cn1c(C(=O)NCc2cccnc2)cc2sc(Cl)cc21				> 60 µM (not active)	0.488 µM (active)	
CC(C)c1ccc(NC(=O)N2CCc3ccccc3C2)cc1	12.1 µM (active)	18.3 µM (active)	12.2 µM (active)			
CCc1ccc(NC(=O)C(C)OC(=O)/C=C/c2ccc(O)c(OC)c2)cc1 (centres undefined)						EC50 [6]: 5.63 µM (active)
COc1ccc2[nH]c3c(c2c1)CN(C)CC3						AC50 (Cytochrome P450 2C9): 39.8 µM (inconclusive)
Cc1cccc(CNc2ncncc2-c2cccc(NS(C)(=O)=O)c2)c1						AC50 (Cytochrome P450 2C9): 1 µM (inconclusive)
CCOCCCN1C(=O)CN(C2CCCCC2)C(=O)C1c1ccc(OCC)c(OC)c1 (centres undefined)						AC50 (Cytochrome P450 2C9): 11.2 µM (inconclusive)
NC(=O)c1ccccc1Nc1nc2nc3ccccc3c(=O)n2cc1Br	> 120 µM (not active)	> 120 µM (not active)	8.23 µM (active)			
NC(=O)NCc1ccc(Cl)cc1						AC50 (Cytochrome P450 2C9): 0.0501 µM (inconclusive)
Cc1ccc(CNC(=O)c2cccc3c2C(=O)c2ccc(N4CCCCC4)cc2S3(=O)=O)cc1						EC50 [6]: 6.87 µM (active)
Oc1nc2cc3c(cc2cc1C(c1nnnn1C1CCCCC1)N1CCSCC1)OCCO3 (centres undefined)						EC50 [6]: > 53 µM (inactive)
CC(C)c1ccc(CNc2ccc3c(c2)ncn3C)cc1	0.217 µM (active)	> 120 µM (not active)	0.228 µM (inconclusive)			
O=C(Nc1ccc(-n2ccc(C(F)(F)F)n2)cc1)Nc1cccc(Cl)c1				6.82 µM (active)	2.01 µM (active)	
CCOc1ccc(C(=O)Nc2c(C(=O)N3CCC(N4CCCCC4)CC3)oc3ccccc23)cc1				> 60 µM (not active)	6.28 µM (active)	
CCOc1ccc(/C=C/C(=O)C(C(N)=O)=C2SCCS2)cc1	1.98 µM (active)	7.17 µM (active)	> 120 µM (not active)			
Cc1cccc(N2CCN(C(c3ccncc3)c3nnnn3C(C)(C)C)CC2)c1C (centres undefined)				> 60 µM (not active)	2.57 µM (active)	

Structure (SMILES)	EC50 [1]	EC50 (H4)	EC50 [2]	EC50 [4]	EC50 [5]	further results
Cc1cc(C)c(C)c(C(=O)CSc2nnc(-c3ccc4[nH]c(C)c(C)c4c3)o2)c1C				> 60 µM (not active)	1.61 µM (active)	
CCC(C(=O)NCCCN1CCCC1=O)n1c2ccccc2c2nc(=O)cc(C)n21 (centres undefined)						EC50 (Streptococcus): > 150 µM (not active); EC50 (Streptokinase A): > 150 µM (not active); EC50 [3]: > 150 µM (not active)
O=C(c1cnccn1)N1CCC2(CC1)CN(c1ccncc1)C2						AC50 (Cytochrome P450 2C9): 25.1 µM (inconclusive)
Cc1ccc(C2NC(=O)c3c(sc(C)c3C)N2)c(O)c1 (centres undefined)	3.83 µM (active)	21.7 µM (active)	22.4 µM (active)			
CNC(=S)N1CCN(c2cccc(OC)c2)CC1						AC50 (Cytochrome P450 2C9): 22.4 µM (inconclusive)
COc1cc2cc3c(N)c(C(=O)NCc4ccco4)sc3nc2cc1OC	73.7 µM (active)	11.1 µM (active)	49.9 µM (active)			
CN(C)c1ccc(/C=C2\Oc3ccc(C#Cc4cccc(N)c4)cc3C2=O)cc1						EC50 [6]: 5.04 µM (active)
CCCCOC(=O)c1[nH]c(C)c(C(=O)OC)c1C	2.88 µM (active)	37.7 µM (active)	51.1 µM (active)			
Cc1ccc(-c2nn(-c3ccccc3)cc2C(=O)Nc2ccc(C)c(S(=O)(=O)N3CCOCC3)c2)cc1	> 120 µM (not active)	> 120 µM (not active)	> 120 µM (not active)	> 60 µM (not active)	1.57 µM (active)	
COc1ccc2cc(C(=O)NCC3CCCO3)[nH]c2c1 (centres undefined)	7.02 µM (active)		22.9 µM (active)			
COc1ccc(NC(=N)Nc2nc(C)cc(C)n2)cc1						EC50 [6]: 13.5 µM (active)
Cc1ccc(-c2nc3ccccc3n3nnnc23)cc1	0.363 µM (active)	4.81 µM (active)	10.1 µM (active)			
CCCOc1cccc(CN2CCCCC2c2cccnc2)c1 (centres undefined)				> 60 µM (not active)	1.53 µM (active)	
N#Cc1c(N)n(Cc2ccccc2)c(=O)c2cc([N+](=O)[O-])ccc12				> 60 µM (not active)	1.41 µM (active)	
O=C(NCCCn1ccnc1)c1sc2cccc(F)c2c1Cl				> 60 µM (not active)	2.02 µM (active)	
Cn1c(=O)c(-c2cccs2)nc2cnc(Oc3ccccc3)nc21						AC50 (Cytochrome P450 2C9): 20 µM (inconclusive)
O=C(/C=C/c1ccc([N+](=O)[O-])s1)N1CCN(c2ccccc2)CC1				9.18 µM (active)	1.81 µM (active)	
CC1C(=O)OC2C1CCC1(C)CCC(=O)C(C)C21 (centres undefined)				> 60 µM (not active)	2.61 µM (active)	
CC(=O)c1cn(CCCCCCCCCCn2cc(C(C)=O)c(=O)[nH]c2=O)c(=O)[nH]c1=O						AC50 (Cytochrome P450 2C9): 3.16 µM (inconclusive)
Cc1ccnc(NC(=O)CCCNC(=O)c2ccc(Cl)cc2)c1	18.2 µM (active)	51.9 µM (active)	24.3 µM (active)			
COc1cccc(CC2(CO)CCCN(Cc3cc4ccccc4[nH]3)C2)c1 (centres undefined)				> 60 µM (not active)	0.834 µM (active)	EC50 [6]: 18.1 µM (active)
COc1ccc2c(c1OC)CN1CCc3cc4c(cc3C1C2)OCO4 (centres undefined) [TETRAHYDROBERBERINE]				> 60 µM (not active)	3.43 µM (active)	
Brc1ccccc1C1CC(c2ccccc2)=Nc2ccccc2N1 (centres undefined)	9.58 µM (active)	36.5 µM (active)	11.5 µM (active)			
c1ccc(-c2cc(-c3nc4ccccc4[nH]3)c3ccccc3n2)cc1				> 60 µM (not active)	1.7 µM (active)	
